Laboratory results: patent US20150307938A1, “METHOD TO IDENTIFY A NOVEL CLASS OF IMMUNOLOGIC ADJUVANTS” (Lancell, L.L.C., priority 2011, published 2015)
“And” between values parts separate entries of the source, which are not always exact repeats. Equal entries are not always repeated.

Test system: skin
Experiment: Affymetrix microarray of skin, DBP-4 hr and analogs vs. untreated; gene selection by log-2 fold change, Wilcoxon, Kendall tau (Tables 8, 9)
Type: in vivo, mouse
Settings: mouse, in vivo

Q: Which results are given for CCCCOC(=O)c1ccccc1C(=O)OCCCC [DBP, dibutylphthalate]?
A: DBP LogFold-Change Versus-Untreated: Csrp1: 0.81; DBP LogFold-Change Versus-Untreated: Cxcl1: 5.43; DBP LogFold-Change Versus-Untreated: Cxcl2: 4.56; DBP LogFold-Change Versus-Untreated: Cxcl16: 1.35; DBP LogFold-Change Versus-Untreated: Cyr61: 1.59; DBP LogFold-Change Versus-Untreated: Cytip: 1.19; DBP LogFold-Change Versus-Untreated: Deptor: 0.99; DBP LogFold-Change Versus-Untreated: Dusp6: 1.81; DBP LogFold-Change Versus-Untreated: Dusp7: 1.07; DBP LogFold-Change Versus-Untreated: Efhd2: 0.82; DBP LogFold-Change Versus-Untreated: Egr1: 1.50; DBP LogFold-Change Versus-Untreated: Eif1a: 0.97; DBP LogFold-Change Versus-Untreated: Epgn: 3.82; DBP LogFold-Change Versus-Untreated: Epha2: 0.82; DBP LogFold-Change Versus-Untreated: Errfi1: 0.89; DBP LogFold-Change Versus-Untreated: F2rl1: 0.78; DBP LogFold-Change Versus-Untreated: Fam43a: 0.81; DBP LogFold-Change Versus-Untreated: Fgfbp1: 1.01; DBP LogFold-Change Versus-Untreated: Fkbp5: 1.19; DBP LogFold-Change Versus-Untreated: Fosl1: 1.95; DBP LogFold-Change Versus-Untreated: Gjb2: 1.21; DBP LogFold-Change Versus-Untreated: Gpr35: 0.91; DBP LogFold-Change Versus-Untreated: Gpr65: 1.35; DBP LogFold-Change Versus-Untreated: Gyk: 1.00; DBP LogFold-Change Versus-Untreated: Gzmb: 1.30; DBP LogFold-Change Versus-Untreated: Havcr2: 1.89; DBP LogFold-Change Versus-Untreated: Hbegf: 1.76; DBP LogFold-Change Versus-Untreated: Hdc: 2.14; DBP LogFold-Change Versus-Untreated: Icam1: 2.66; DBP LogFold-Change Versus-Untreated: Ier2: 1.02; DBP LogFold-Change Versus-Untreated: Ier3: 1.85; DBP LogFold-Change Versus-Untreated: Il1b: 2.73; DBP LogFold-Change Versus-Untreated: Il1rl1: 0.91; DBP LogFold-Change Versus-Untreated: Il4ra: 0.81; DBP LogFold-Change Versus-Untreated: Il6: 3.05; DBP LogFold-Change Versus-Untreated: Il7r: 1.15; DBP LogFold-Change Versus-Untreated: Il10ra: 0.90; DBP LogFold-Change Versus-Untreated: Irs2: 0.94; DBP LogFold-Change Versus-Untreated: Jun: 1.06; DBP LogFold-Change Versus-Untreated: Junb: 1.39; DBP LogFold-Change Versus-Untreated: Kctd11: 0.80; DBP LogFold-Change Versus-Untreated: Klrb 1b: 1.25; DBP LogFold-Change Versus-Untreated: Krt6a: 1.53; DBP LogFold-Change Versus-Untreated: Krt35: 1.06; DBP LogFold-Change Versus-Untreated: LOC100504977: 3.10; DBP LogFold-Change Versus-Untreated: Map3k6: 1.03; DBP LogFold-Change Versus-Untreated: Map3k8: 1.01; DBP LogFold-Change Versus-Untreated: Mt1: 1.34; DBP LogFold-Change Versus-Untreated: Mt2: 1.11; DBP LogFold-Change Versus-Untreated: Nfil3: 1.60; DBP LogFold-Change Versus-Untreated: Nfkb2: 0.94; DBP LogFold-Change Versus-Untreated: Nr4a1: 2.09; DBP LogFold-Change Versus-Untreated: Nr4a2: 1.39; DBP LogFold-Change Versus-Untreated: Osmr: 0.95; DBP LogFold-Change Versus-Untreated: Otud7a: 1.25; DBP LogFold-Change Versus-Untreated: Pde4b: 1.44; DBP LogFold-Change Versus-Untreated: Plaur: 1.06; DBP LogFold-Change Versus-Untreated: Plk3: 1.00; DBP LogFold-Change Versus-Untreated: Pmaip1: 1.47; DBP LogFold-Change Versus-Untreated: Pprc1: 0.78; DBP LogFold-Change Versus-Untreated: Pqlc1: 0.87; DBP LogFold-Change Versus-Untreated: Prss22: 1.61; DBP LogFold-Change Versus-Untreated: Ptges: 1.22; DBP LogFold-Change Versus-Untreated: Pvr: 0.90; DBP LogFold-Change Versus-Untreated: Pyy: 2.62; DBP LogFold-Change Versus-Untreated: Rab20: 1.52; DBP LogFold-Change Versus-Untreated: Ramp3: 1.20; DBP LogFold-Change Versus-Untreated: Rgs1: 2.12; DBP LogFold-Change Versus-Untreated: Rnf19b: 1.15; DBP LogFold-Change Versus-Untreated: Serpine1: 2.68; DBP LogFold-Change Versus-Untreated: Slc7a5: 1.52; DBP LogFold-Change Versus-Untreated: Slc10a6: 1.33; DBP LogFold-Change Versus-Untreated: Slc25a25: 1.16; DBP LogFold-Change Versus-Untreated: Slc39a8: 1.52; DBP LogFold-Change Versus-Untreated: Slc39a14: 0.84; DBP LogFold-Change Versus-Untreated: Smox: 1.30 and 1.29 and 1.28; DBP LogFold-Change Versus-Untreated: Socs2: 1.26; DBP LogFold-Change Versus-Untreated: Socs3: 1.39; DBP LogFold-Change Versus-Untreated: Sprr1a: 1.43; DBP LogFold-Change Versus-Untreated: Stc1: 1.07; DBP LogFold-Change Versus-Untreated: Stk17b: 0.89; DBP LogFold-Change Versus-Untreated: Tnfaip2: 1.94; DBP LogFold-Change Versus-Untreated: Tnfaip3: 2.10; DBP LogFold-Change Versus-Untreated: Tnfaip6: 2.30; DBP LogFold-Change Versus-Untreated: Traf1: 1.07; DBP LogFold-Change Versus-Untreated: Uap1: 1.11; DBP LogFold-Change Versus-Untreated: Zbtb16: 1.04; DBP LogFold-Change Versus-Untreated: Zfp36: 1.53; DBP LogFold-Change Versus-Untreated: Zfp593: 1.01; Dbp NM_016974_at ≧2-Fold change: No; Deptor NM_001037937_at ≧2-Fold change: No; Dlgap4 NM_001042487_at ≧2-Fold change: No; Dlgap4 NM_001042488_at ≧2-Fold change: No; Dusp6 (NM_026268_at) ≧2-Fold change: Yes; Dusp7 (NM_153459_at) ≧2-Fold change: Yes; Ear5 NM_019398_at ≧2-Fold change: No; Epgn (NM_053087_at) ≧2-Fold change: Yes; Fam134b NM_001034851_at ≧2-Fold change: No; Gcdh NM_001044744_at ≧2-Fold change: No; Gm10228 XM_001474297_at ≧2-Fold change: No; Gm10228 XM_003086004_at ≧2-Fold change: No; Gm10229 XM_003086003_at ≧2-Fold change: No; Gsdmc NM_031378_at ≧2-Fold change: No; Gzmb (NM_013542_at) ≧2-Fold change: Yes; H19 NR_001592_at ≧2-Fold change: No; Havcr2 (NM_134250_at) ≧2-Fold change: Yes; Ier2 (NM_010499_at) ≧2-Fold change: Yes; Ier3 (NM_133662_at) ≧2-Fold change: Yes; Ifi202b (NM_011940_at) ≧2-Fold change: Yes; Il1f6 (NM_019450_at) ≧2-Fold change: Yes; Il1rl1 NM_001025602_at ≧2-Fold change: No; Il6 (NM_031168_at) ≧2-Fold change: Yes; Il20 (NM_021380_at) ≧2-Fold change: Yes; Inpp5a NM_001127363_at ≧2-Fold change: No; Inpp5d NM_001110192_at ≧2-Fold change: No; Inpp5d NM_001110193_at ≧2-Fold change: No; Jdp2 (NM_030887_at) ≧2-Fold change: Yes; Jun (NM_010591_at) ≧2-Fold change: Yes; Klhdc5 NM_001081237_at ≧2-Fold change: No; Klk6 (NM_011177_at) ≧2-Fold change: Yes; Klrb1b (NM_030599_at) ≧2-Fold change: Yes; Krt25 (NM_133730_at) ≧2-Fold change: Yes; Krt27 (NM_010666_at) ≧2-Fold change: Yes; Krt33a NM_027983_at ≧2-Fold change: No; Krt34 NM_027563_at ≧2-Fold change: No; Krt35 (NM_016880_at) ≧2-Fold change: Yes; Krt71 (NM_019956_at) ≧2-Fold change: Yes; Krtap1-5 NM_027157_at ≧2-Fold change: No; Krtap3-1 NM_023511_at ≧2-Fold change: No; Krtap3-3 NM_025524_at ≧2-Fold change: No; Krtap4-2 NM_026807_at ≧2-Fold change: No; Krtap4-16 (NM_001013823_at) ≧2-Fold change: No; Krtap5-2 NM_027844_at ≧2-Fold change: No; Krtap9-3 NM_029351_at ≧2-Fold change: No; Krtap13-1 NM_183189_at ≧2-Fold change: No; Krtap16-1 NM_130870_at ≧2-Fold change: No; Krtap16-5 NM_130857_at ≧2-Fold change: No; Krtap16-7 NM_028621_at ≧2-Fold change: No; Krtap16-8 NM_130856_at ≧2-Fold change: No; Krtap16-9 NM_130876_at ≧2-Fold change: No; Krtap16-10 NM_183296_at ≧2-Fold change: No; Krtap28-13 XM_896507_at ≧2-Fold change: No; Krtap28-13 XM_919110_at ≧2-Fold change: No; LOC100044068 (XM_001473873_at) ≧2-Fold change: Yes; LOC100503254 XM_003085741_at ≧2-Fold change: No; LOC100504977 (XM_003085794_at) ≧2-Fold change: Yes; Lmod2 NM_053098_at ≧2-Fold change: No; Lyz2 NM_017372_at ≧2-Fold change: No; Maff (NM_010755_at) ≧2-Fold change: Yes; Map3k6 (NM_016693_at) ≧2-Fold change: Yes; Mcoln2 (NM_026656_at) ≧2-Fold change: Yes; Mfhas1 NM_001081279_at ≧2-Fold change: No; Mfsd4 NM_001114662_at ≧2-Fold change: No; Mia1 NM_019394_at ≧2-Fold change: No; Mrpl44 NM_001081210_at ≧2-Fold change: No; Ms4a6d NM_026835_at ≧2-Fold change: No; Mt1 (NM_013602_at) ≧2-Fold change: Yes; Mylpf NM_016754_at ≧2-Fold change: No; Myoz2 NM_021503_at ≧2-Fold change: No; NA (AFFX-18SRNAMur/X00686_3_at) ≧2-Fold change: No; NA (AFFX-18SRNAMur/X00686_5_at) ≧2-Fold change: No; NA (AFFX-18SRNAMur/X00686_M_at) ≧2-Fold change: No; NA (AFFX-BioB-3_at) ≧2-Fold change: No; NA (AFFX-BioB-5_at) ≧2-Fold change: No; NA (AFFX-BioB-M_at) ≧2-Fold change: No; NA (AFFX-BioC-3_at) ≧2-Fold change: No; NA (AFFX-BioC-5_at) ≧2-Fold change: No; NA (AFFX-BioDn-3_at) ≧2-Fold change: No; NA (AFFX-BioDn-5_at) ≧2-Fold change: No; NA (AFFX-ThrX-5_at) ≧2-Fold change: No; Ncbp1 NM_001033201_at ≧2-Fold change: No; Nfil3 (NM_017373_at) ≧2-Fold change: Yes; Nfkbia (NM_010907_at) ≧2-Fold change: Yes; Nfkbiz (NM_030612_at) ≧2-Fold change: Yes; Nolc1 NM_001039351_at ≧2-Fold change: No; Nolc1 NM_001039352_at ≧2-Fold change: No; Nolc1 NM_001039353_at ≧2-Fold change: No; Nr4a2 (NM_013613_at) ≧2-Fold change: Yes
